{
  "source": "patent US12551499B2",
  "about": "(Atea Pharmaceuticals, Inc., priority 2020, dated 2026)",
  "key": {"[1]": {"test_system": "human bronchial epithelial cells", "settings": "10 μM"}, "[2]": {"experiment": "in vivo", "settings": "male, cynomolgus monkey, Mean Intracellular Compound 1-6 Concentration"}, "[3]": {"settings": "male, cynomolgus monkey, in vivo, 12 h"}, "[4]": {"test_system": "human nasal epithelial cells", "settings": "10 μM"}, "[5]": {"test_system": "human airway epithelial (HAE) cells"}, "[6]": {"test_system": "MERS-CoV (EMC)", "type": "cell-based", "settings": "MERS-CoV versus other CoVs"}, "[7]": {"test_system": "Huh7 cells", "experiment": "Visual cytotoxicity in uninfected Huh7 cells", "type": "cell-based, human", "procedure": "(§1) Huh7 cells were seeded in 96-well plates at a concentration that yielded 80-100% confluent monolayers in each well after overnight incubation. Compound 1A was dissolved in DMSO to 10 mg/mL and 8 half-log serial dilutions in test medium (modified Eagle's medium containing 5% fetal bovine serum and […] gentamicin) were prepared with the highest concentration of 50 μg/mL. 100 μL of each concentration were added to 5 test wells on the 96-well plate and 3 wells were infected with test virus in test medium (≤100 CCID50 per well). An equivalent amount of test medium was added to the remaining test wells to assess toxicity to uninfected cells. Six wells were infected to serve as untreated virus controls. Media only was added to 6 wells to serve as cell controls. Plates were incubated at 37° C. in a humidified 5% CO2 atmosphere until cytopathic effect (CPE) was observed microscopically."}, "[8]": {"test_system": "RD cells", "settings": "human"}, "[9]": {"test_system": "SARS-CoV-2 (WA1)", "experiment": "Virus yield reduction assay, SARS-CoV-2 in dNHBE / HAE cells", "type": "cell-based", "procedure": "The antiviral activity of Compound 1A was next evaluated against SARS-CoV-2 (WA1) using differentiated normal human bronchial epithelial (dNHBE; HAE (human airway epithelial) cells made to order by MatTek Corporation (Ashland, MA).\nCell Culture: dNHBE cells were grown on 6 mm mesh disks and arrived in kits with either 12- or 24-well transwell inserts. During transportation the tissues were stabilized on a sheet of agarose, which was removed upon receipt. One insert was estimated to consist of approximately 1.2×10^6 cells. Kits of cell inserts (EpiAirway™ AIR-100, AIR-112) originated from a single donor, #9831, a healthy, non-smoking person. The cells have unique properties in forming layers, the apical side of which is exposed only to air and that creates a mucin layer. Upon arrival, the cell transwell inserts were immediately transferred to individual wells of a 6-well plate according to manufacturer's instructions, and 1 mL of MatTek's proprietary culture medium (AIR-100-MM) was added to the basolateral side, whereas the apical side was exposed to a humidified 5% CO2 environment. Cells were cultured at 37° C. for one day before the start of the experiment. After the 24 hour equilibration period, the mucin layer, secreted from the apical side of the cells, was removed by washing with 400 μL pre-warmed 30 mM HEPES buffered saline solution 3×. Culture medium was replenished following the wash steps.\nViruses: Virus was diluted in AIR-100-MM medium before infection, yielding a multiplicity of infection (MOI) of approximately 0.0015 CCID50 per cell.\nThe cells were maintained at the air-liquid interface.\nDetermination of virus titers from each treated cell culture: Vero 76 cells were seeded in 96-well plates and grown overnight (37° C.) to confluence. Samples containing virus were diluted in 10-fold increments in infection medium and 200 μL of each dilution transferred into respective wells of a 96-well microtiter plate. Four microwells were used for each dilution to determine 50% viral endpoints. After 5 days of incubation, each well was scored positive for virus if any cytopathic effect (CPE) was observed as compared with the uninfected control and counts were confirmed for endpoint on days 6 and 7. […] The day 5 values were reported. Untreated, uninfected cells were used as the cell controls.\nThe antiviral activities of test compounds were evaluated against SARS-CoV-2 (USA-WA1/2020) using made to order human airway epithelial (HAE) cells.\nCell Culture: HAE cells were grown on 6 mm mesh disks and arrived in kits with either 12- or 24-well transwell inserts. During transportation the tissues were stabilized on a sheet of agarose, which was removed upon receipt. One insert was estimated to consist of approximately 1.2×10^6 cells. Kits of cell inserts (EpiAirway™ AIR-100 or AIR-112) originated from a single donor, #9831, a healthy, non-smoking person. The cells form polarized monolayers, the apical side of which is exposed to air and creates a mucin layer. Upon arrival, the cell transwell inserts were immediately transferred to individual wells of a 6-well plate according to the manufacturer's instructions, and 1 mL of MatTek's proprietary culture medium (AIR-100-MM) was added to the basolateral side, whereas the apical side was exposed to a humidified 5% CO2 environment. Cells were cultured at 37° C. in a humidified atmosphere containing 5% CO2 for one day before the start of the experiment. After the 24-h equilibration period, the mucin layer, secreted from the apical side of the cells, was removed by washing with 400 μL pre-warmed 30 mM HEPES buffered saline solution 3×. Culture medium was replenished following the wash steps.\nViruses: Virus was diluted in AIR-100-MM medium before infection to yield a MOI when added to cultures of approximately 0.0015 CCID50 per cell.\nSelect compounds of the present invention were tested in a SARS-CoV-2 assay. […]"}, "[10]": {"test_system": "Huh-7 cells"}, "[11]": {"test_system": "human bronchial epithelial cells", "experiment": "Triphosphate formation in human bronchial epithelial cells", "settings": "human nasal and bronchial epithelial cells, up to 100 μM"}, "[12]": {"experiment": "Plasma PK in non-human primates after oral Compound 2A", "settings": "monkey plasma, oral Compound 2A 60 mg/kg then 30 mg/kg every 12 h, steady state"}, "[13]": {"test_system": "human coronavirus alpha-229E", "experiment": "Visual CPE assay, coronavirus alpha-229E in Huh7 cells", "type": "cell-based", "settings": "Huh-7", "procedure": "as §1"}, "[14]": {"test_system": "human airway epithelial (HAE) cells", "experiment": "Cytotoxicity in dNHBE / HAE cells by visual inspection", "settings": "visual toxicity, Table 11"}},
  "note": "“And” between values parts separate entries of the source, which are not always exact repeats. Equal values may be shown once. Read-outs that look alike come from different tables or passages of the source.",
  "data": [
    {"smiles": "C[C@@]1(F)[C@H](O)[C@@H](COP(=O)(O)OP(=O)(O)OP(=O)(O)O)O[C@H]1n1cnc2c(=O)[nH]c(N)nc21", "note": "[Compound 1-6]", "values": [
      {"measurement": "Mean Intracellular Compound 1-6 Concentration", "setting": "[1]; 0 h", "value": 698, "unit": "µM"},
      {"measurement": "Mean Intracellular Compound 1-6 Concentration", "setting": "[1]; 15 h", "value": 560, "unit": "µM"},
      {"measurement": "Mean Intracellular Compound 1-6 Concentration", "setting": "[1]; 24 h", "value": 462, "unit": "µM"},
      {"measurement": "Mean Intracellular Compound 1-6 Concentration", "setting": "[1]; 48 h", "value": 290, "unit": "µM"},
      {"measurement": "Mean Intracellular Compound 1-6 Concentration", "setting": "[1]; 72 h", "value": 217, "unit": "µM"},
      {"measurement": "concentration at 24 h", "setting": "[2]", "value": 32, "unit": "nM"},
      {"measurement": "Mean Intracellular Compound 1-6 Concentration", "setting": "[3]", "value": 0.089, "unit": "µM"},
      {"measurement": "Mean Intracellular Compound 1-6 Concentration", "setting": "[4]; 0 h", "value": 236, "unit": "µM"},
      {"measurement": "Mean Intracellular Compound 1-6 Concentration", "setting": "[4]; 15 h", "value": 204, "unit": "µM"},
      {"measurement": "Mean Intracellular Compound 1-6 Concentration", "setting": "[4]; 24 h", "value": 170, "unit": "µM"},
      {"measurement": "Mean Intracellular Compound 1-6 Concentration", "setting": "[4]; 48 h", "value": 107, "unit": "µM"},
      {"measurement": "Mean Intracellular Compound 1-6 Concentration", "setting": "[4]; 72 h", "value": 73.8, "unit": "µM"}
    ]},
    {"smiles": "CNc1nc(N)nc2c1ncn2[C@@H]1O[C@H](CO[P@@](=O)(N[C@@H](C)C(=O)OC(C)C)Oc2ccccc2)[C@@H](O)[C@@]1(C)F", "note": "[Compound 1A]", "values": [
      {"measurement": "VYR Assay CC50", "setting": "[5]", "value": "no visual tox no visual tox no visual tox"},
      {"measurement": "difference of activity between MERS-CoV and other CoVs", "setting": "[6]", "value": 30, "unit": "fold"},
      {"measurement": "CC50", "setting": "[7]; Alpha-229E row", "value": "> 50000", "unit": "nM"},
      {"measurement": "CC50", "setting": "[7]; Beta-OC43 row", "value": "> 50000", "unit": "nM"},
      {"measurement": "CC50", "setting": "[8]", "value": "> 86000", "unit": "nM"},
      {"measurement": "replicate EC90 determinations", "setting": "[9]; SARS-CoV-2 (WA1) in dNHBE, single replicates", "value": 0.41, "unit": "µg/mL"},
      {"measurement": "EC90", "setting": "[9]; SARS-CoV-2 in HAE (dNHBE) cells, Table 11, read-out: VYR Assay EC90", "value": "460 nM and 520 nM"},
      {"measurement": "EC90", "setting": "[9]; SARS-CoV-2 in HAE, footnotes f, g, h of Table 5, read-out: EC90, single replicates", "value": "700 nM and 420 nM"},
      {"measurement": "EC90", "setting": "[9]; Severe acute respiratory syndrome coronavirus 2, HAE, SARS-CoV-2 in HAE (dNHBE) cells, Table 11, read-out: VYR Assay EC90", "value": 630, "unit": "nM"},
      {"measurement": "cytotoxicity", "setting": "[10]", "value": "No cytotoxicity was detected"},
      {"measurement": "CC50", "setting": "[10]; human", "value": "> 50000", "unit": "nM"},
      {"measurement": "toxicity", "setting": "[11]", "value": "no toxicity was observed"},
      {"measurement": "AUC0-12 h", "setting": "[12]", "value": 0.44, "unit": "µM·h"},
      {"measurement": "Cmax", "setting": "[12]", "value": 640, "unit": "nM"},
      {"measurement": "T1/2", "setting": "[12]", "value": 44.4, "unit": "min"},
      {"measurement": "Tmax", "setting": "[12]", "value": "30 to 60", "unit": "min"},
      {"measurement": "EC50", "setting": "[13]", "value": 1000, "unit": "nM"}
    ]},
    {"smiles": "CCC(CC)COC(=O)[C@H](C)N[P@](=O)(OC[C@H]1O[C@@](C#N)(c2ccc3c(N)ncnn23)[C@H](O)[C@@H]1O)Oc1ccccc1", "note": "[Remdesivir]", "values": [
      {"measurement": "VYR Assay CC50", "setting": "[14]", "value": "no visual tox no visual tox no visual tox no visual tox"}
    ]}
  ]
}
